The source of these data is ChEMBL document CHEMBL1201862, “PubChem BioAssay data set” (2004).

Test systems include LOX IMVI; SK-MEL-5; CAKI-1; NCI-H226; IGROV-1; ACHN; A549; NCI-H23; HOP-92; EKVX; U-251; UO-31; OVCAR-8; HCT-116; HCC 2998; SF-539; SK-MEL-28; COLO 205; A498.
Test in all cases: NCI anticancer screen, dose series, 48 h

Each structure is given as a SMILES string.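 96-well plates; 48 h exposure; 5 concentrations. Endpoints by linear interpolation between flanking doses. Not reached: highest tested concentration assigned. GI50 marks 50% less growth.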 The source made the active and inactive calls. Cut-off read from the data, not from the text of the source: active = GI50 up to about 1.1 µM and inactive = higher.

Regarding `Cc1c(N(Cc2ccccc2)Cc2ccccc2)nc(S(C)(=O)=O)nc1S(C)(=O)=O`, the GI50 with LOX IMVI is 1.84 µM (inactive); in the experiment with SK-MEL-5 it was 12 µM (inactive); with CAKI-1 it was 8.07 µM (inactive); in the experiment with NCI-H226, 12.7 µM (inactive); in the experiment on IGROV-1 it was 1.74 µM (inactive); with ACHN, 4.68 µM (inactive). Moreover, the GI50 in the experiment on A549 was 15.3 µM (inactive); in the experiment on NCI-H23, 1.72 µM (inactive); in the experiment with HOP-92 it was 3.56 µM (inactive); in the experiment with EKVX, 1.53 µM (inactive); with U-251, 2.53 µM (inactive); in the experiment on UO-31 it was 12.1 µM (inactive). In addition, the GI50 in the experiment with OVCAR-8 is 1.85 µM (inactive); in the experiment with HCT-116, 1.66 µM (inactive); in the experiment with HCC 2998, 1.79 µM (inactive); with SF-539, 13 µM (inactive).
As to `COc1cccc(C2C(C(=O)O)=C(CO)Oc3cc4c(cc32)OCO4)c1` (stereo not given), the GI50 in the experiment with LOX IMVI, in the experiment on SK-MEL-5, in the experiment on CAKI-1, with NCI-H226, in the experiment on IGROV-1 and in the experiment on ACHN was > 100 µM (inactive) each time. For the same compound, the GI50 with SK-MEL-28, with NCI-H23, in the experiment on HOP-92, with COLO 205, in the experiment with EKVX and in the experiment on U-251 was > 100 µM (inactive) throughout. Further, the GI50 in the experiment with UO-31, in the experiment with OVCAR-8, in the experiment with SF-539 and in the experiment with A498 was > 100 µM (inactive) throughout.
Consider `CC(C)(Br)C1(O)CCCN1C(=O)c1ccccc1` (stereo not given), for which the GI50 in the experiment with LOX IMVI, in the experiment on SK-MEL-5, with IGROV-1, in the experiment on ACHN, with A549 and in the experiment with SK-MEL-28 was > 100 µM (inactive) throughout. For the same compound, the GI50 in the experiment with NCI-H23, in the experiment with HOP-92, with COLO 205, in the experiment with EKVX, with U-251 and in the experiment with UO-31 was > 100 µM (inactive) throughout. Moreover, the GI50 in the experiment on OVCAR-8, in the experiment with HCT-116, in the experiment on HCC 2998, in the experiment with SF-539 and in the experiment on A498 was > 100 µM (inactive) in each case.
For `COc1ccc([Se][Se]c2ccc(OC)cc2OC)c(OC)c1`, the GI50 is 2 µM (inactive) in the experiment on LOX IMVI; 7.85 µM (inactive) with SK-MEL-5; 3.54 µM (inactive) in the experiment on CAKI-1; 2.9 µM (inactive) in the experiment on NCI-H226; 3.25 µM (inactive) in the experiment on IGROV-1; 2.86 µM (inactive) in the experiment with ACHN. For the same compound, the GI50 in the experiment with A549 is 8.89 µM (inactive); in the experiment with SK-MEL-28, 2.16 µM (inactive); in the experiment with NCI-H23 it was 2.92 µM (inactive); with HOP-92 it was 2.35 µM (inactive); with COLO 205 it was 6.79 µM (inactive); in the experiment with UO-31, 2.4 µM (inactive). Also, the GI50 is 4.75 µM (inactive) in the experiment on OVCAR-8; 2.75 µM (inactive) in the experiment on HCT-116; 6.07 µM (inactive) with HCC 2998; 1.75 µM (inactive) in the experiment on SF-539; 18.2 µM (inactive) in the experiment on A498.
As for `COC(=O)/C([Se]c1c(C)cc(C)cc1C)=C(\[Se]c1c(C)cc(C)cc1C)C(=O)OC`, the GI50 with LOX IMVI, in the experiment with SK-MEL-5, in the experiment on CAKI-1, with NCI-H226, in the experiment with IGROV-1 and with ACHN was > 100 µM (inactive) throughout. In addition, the GI50 with A549, in the experiment with NCI-H23, in the experiment on HOP-92, in the experiment with COLO 205, with EKVX and in the experiment with U-251 was > 100 µM (inactive) each time. The GI50 in the experiment with UO-31 was > 100 µM (inactive); in the experiment with OVCAR-8, > 100 µM (inactive); in the experiment with HCT-116 it was > 100 µM (inactive); in the experiment with HCC 2998, > 100 µM (inactive); in the experiment on SF-539, > 10 µM (inactive); in the experiment on A498 it was > 100 µM (inactive).
Consider `C=COCCCOc1ccccc1`, for which the GI50 in the experiment on LOX IMVI is > 100 µM (inactive); in the experiment on SK-MEL-5 it was > 100 µM (inactive); with CAKI-1 it was > 100 µM (inactive); in the experiment on NCI-H226 it was > 100 µM (inactive); in the experiment with IGROV-1 it was 0.145 µM (active); in the experiment on ACHN, > 100 µM (inactive). Also, the GI50 in the experiment on A549, in the experiment with SK-MEL-28, with NCI-H23, in the experiment on COLO 205, in the experiment on EKVX and in the experiment with U-251 was > 100 µM (inactive) in each case. In addition, the GI50 in the experiment on UO-31, in the experiment with OVCAR-8, in the experiment on HCT-116, in the experiment with HCC 2998 and in the experiment on SF-539 was > 100 µM (inactive) each time.
For `CCCn1cc2c3c(cccc31)C1C=C(C)CN(C)C1C2` (stereo not given), the GI50 with LOX IMVI was 13.6 µM (inactive); with SK-MEL-5, 11.3 µM (inactive); with CAKI-1, 11.8 µM (inactive); with NCI-H226, 12.8 µM (inactive); in the experiment on IGROV-1, 27 µM (inactive); in the experiment with A549 it was 34.5 µM (inactive). Also, the GI50 in the experiment with SK-MEL-28 was 18.1 µM (inactive); in the experiment on NCI-H23, 25.5 µM (inactive); with HOP-92, 11.7 µM (inactive); with COLO 205, 9.98 µM (inactive); in the experiment on EKVX, 18 µM (inactive); with U-251 it was 19 µM (inactive). The GI50 with UO-31 is 9.71 µM (inactive); with OVCAR-8 it was 29.7 µM (inactive); with HCT-116, 10.4 µM (inactive); in the experiment with HCC 2998, 15.2 µM (inactive); in the experiment with SF-539 it was 25.6 µM (inactive); in the experiment with A498 it was 13.7 µM (inactive).
`COC[C@@H](Cc1ccc(OC)c(OC)c1)[C@@H](COC)Cc1ccc(OC)c(OC)c1`: the GI50 in the experiment on LOX IMVI is > 100 µM (inactive); in the experiment with SK-MEL-5, 51.9 µM (inactive); with IGROV-1, > 100 µM (inactive); in the experiment with ACHN it was > 100 µM (inactive); in the experiment on A549 it was > 100 µM (inactive); in the experiment on SK-MEL-28, > 100 µM (inactive). Further, the GI50 with NCI-H23 is > 100 µM (inactive); in the experiment with HOP-92 it was 57.9 µM (inactive); in the experiment with COLO 205, > 100 µM (inactive); with EKVX, > 100 µM (inactive); with U-251 it was > 100 µM (inactive); in the experiment with UO-31 it was > 100 µM (inactive). For the same compound, the GI50 with OVCAR-8 is > 100 µM (inactive); with HCT-116, 94 µM (inactive); in the experiment with HCC 2998 it was > 100 µM (inactive); in the experiment with SF-539, > 100 µM (inactive); in the experiment with A498 it was > 100 µM (inactive).
With `CC(C)(C)OC(=O)NC1CCCC1=O` (stereo not given), the GI50 in the experiment with LOX IMVI, in the experiment with SK-MEL-5, in the experiment on CAKI-1, in the experiment on NCI-H226, with ACHN and with A549 was > 100 µM (inactive) in each case. The GI50 with SK-MEL-28, in the experiment on NCI-H23, in the experiment on HOP-92, in the experiment on EKVX, with U-251 and in the experiment with UO-31 was > 100 µM (inactive) each time. The GI50 in the experiment with OVCAR-8 was > 100 µM (inactive); in the experiment with HCT-116, > 100 µM (inactive); in the experiment on HCC 2998, > 100 µM (inactive); with SF-539 it was > 100 µM (inactive); in the experiment on A498 it was 8.3 µM (inactive).
On to `C/C(=N/NS(=O)(=O)c1ccc([N+](=O)[O-])cc1)c1cccc[n+]1[O-]`, for which the GI50 in the experiment on SK-MEL-5, in the experiment on CAKI-1, in the experiment with IGROV-1, in the experiment on ACHN, in the experiment on A549 and in the experiment on SK-MEL-28 was > 100 µM (inactive) in each case. Further, the GI50 in the experiment on NCI-H23, with HOP-92, in the experiment with EKVX, in the experiment on U-251, with UO-31 and with OVCAR-8 was > 100 µM (inactive) in each case. In addition, the GI50 in the experiment with HCT-116, in the experiment on HCC 2998, in the experiment on SF-539 and in the experiment with A498 was > 100 µM (inactive) in each case.
In the case of `C=C1C(=O)O[C@@H]2[C@H]3O[C@]3(C)CCC=C(C)CC[C@@H]12`, the GI50 in the experiment on LOX IMVI was 8.24 µM (inactive); in the experiment with SK-MEL-5, 17.5 µM (inactive); in the experiment with CAKI-1, 9.31 µM (inactive); in the experiment with NCI-H226, 20.5 µM (inactive); in the experiment with IGROV-1, 21.1 µM (inactive); with A549 it was 94.6 µM (inactive). Further, the GI50 is 21.1 µM (inactive) in the experiment on SK-MEL-28; 20.2 µM (inactive) in the experiment on NCI-H23; 13.6 µM (inactive) in the experiment on HOP-92; 14.5 µM (inactive) with COLO 205; 17.4 µM (inactive) with EKVX; 41.6 µM (inactive) with U-251. In addition, the GI50 in the experiment with UO-31 is 42 µM (inactive); with OVCAR-8 it was 16.7 µM (inactive); in the experiment with HCT-116, 10.3 µM (inactive); in the experiment with HCC 2998 it was 24.2 µM (inactive); with SF-539, 19 µM (inactive); in the experiment with A498 it was 7.05 µM (inactive).
For `CN(C)/N=N/c1ccc([N+](=O)[O-])cc1C(N)=O`, the GI50 in the experiment with LOX IMVI, with SK-MEL-5, with CAKI-1, in the experiment on NCI-H226, with IGROV-1 and in the experiment on A549 was > 100 µM (inactive) each time. Moreover, the GI50 in the experiment with SK-MEL-28 was > 100 µM (inactive); with NCI-H23 it was > 100 µM (inactive); in the experiment on HOP-92 it was > 100 µM (inactive); in the experiment on COLO 205 it was > 100 µM (inactive); with EKVX, > 71.3 µM (inactive); in the experiment with U-251, > 100 µM (inactive). The GI50 in the experiment on UO-31 was > 82 µM (inactive); with OVCAR-8, > 100 µM (inactive); in the experiment on HCT-116 it was > 100 µM (inactive); in the experiment on HCC 2998 it was > 100 µM (inactive); in the experiment with SF-539 it was > 100 µM (inactive); in the experiment with A498, > 80.9 µM (inactive).
